The record followed here is BindingDB's records for doi:10.1016/j.bmc.2018.07.019 (The Scripps Research Institute, 2018).

As usually defined, the pIC50 is the IC50 on a negative log10 scale, so that one unit is a factor of ten.

SMILES strings stand for the structures. pIC50: −log10 of the molar value.

The experiment can be described thus: Inhibition of ATG-Myc (unknown origin) expressed in CEF cells assessed as inhibition of microtumor formation.

As for `COc1ccc(-c2cc(-c3ccc(C(N)=O)cc3)nc(-c3ccccc3)n2)cc1`, the pIC50 is less than 4.00. `N#Cc1ccc(-c2cc(-c3ccc(C(N)=O)cc3)nc(-c3cc[n+]([O-])cc3)n2)cc1`: the pIC50 was less than 4.00. As to `NC(=O)c1ccc(-c2cc(-c3ccc(-c4cnco4)cc3)nc(-c3ccco3)c2)cc1`, the pIC50 is 5.60.

As to `NC(=O)c1ccc(-c2cc(-c3ccc(-c4nccs4)cc3)nc(-c3ccco3)c2)cc1`, the pIC50 is 5.30. Turning to `Cn1ccnc1-c1cc(-c2ccc(C(N)=O)cc2)cc(-c2ccc(C#N)cc2)n1`, the pIC50 is 4.40. For `N#Cc1ccc(-c2cc(-c3ccc(C(N)=O)cc3)cc(-c3cncs3)n2)cc1` the value was 4.52; for `N#Cc1ccc(-c2cc(-c3ccc(C(N)=O)cc3)nc(-c3ccco3)n2)cc1`, 5.15.

`N#Cc1ccc(-c2cc(-c3ccc(C(N)=O)cc3)cc(-c3cccc(F)c3)n2)cc1`: the pIC50 is less than 4.00.

For the compound `N#Cc1ccc(-c2cc(-c3ccc(C(=O)NN)cc3)cc(-c3ccco3)n2)cc1`, the pIC50 is less than 4.00. For the compound `CS(=O)(=O)NC(=O)c1ccc(-c2cc(-c3ccc(C#N)cc3)nc(-c3ccco3)c2)cc1`, the pIC50 is 5.00. Regarding `N#Cc1ccc(-c2cc(-c3ccc(-c4nnn[nH]4)cc3)cc(-c3ccco3)n2)cc1`, the pIC50 was 5.70.

With `c1coc(-c2cc(-c3nccs3)cc(-c3ccc(-c4nccs4)cc3)n2)c1`, the pIC50 was less than 4.00. Under `N#Cc1ccc(-c2cc(-c3ccc(C(N)=O)cc3)cc(-c3cnco3)n2)cc1` stands 5.30; under `N#Cc1ccc(-c2cc(-c3ccc(C(N)=O)cc3)cc(-c3ccco3)n2)cc1`, 5.52.

As to `Cn1nncc1-c1cc(-c2ccc(C(N)=O)cc2)cc(-c2ccc(C#N)cc2)n1`, the pIC50 is 4.40.
